Measurements published in US12569503B2, “Methods and compositions for substituted axially-chiral cannabinol analogs” (University of Florida Research Foundation, Inc., priority 2019, dated 2026).
“Also recorded” adds a separate entry of the source.

How the values were obtained:
[1] = system: mice trained to discriminate 10 mg/kg THC; conditions: rimonabant 0.32 and 1 mg/kg versus vehicle; cited from earlier work
cannabinoid receptors = conditions: in a variety of studies, cited from earlier work
mice [2] = assay: Locomotion measured as ambulatory time (modified tetrad assay); format: in vivo; conditions: for Locomotion (in words): modified tetrad assay, THC 10-56 mg/kg, ax-CBN 56-320 mg/kg
mice [3] = assay: Acute thermal antinociception (tail-flick, modified tetrad assay); format: in vivo; conditions: THC 10-56 mg/kg, ax-CBN 56-320 mg/kg
C57bl/6j mice = assay: Reduction of body temperature (hypothermia); conditions: for Effect on body temperature (in words): mice, THC 10-56 mg/kg, ax-CBN 56-320 mg/kg
[4] = Locomotion measured as ambulatory time (modified tetrad assay); format: in vivo, mice; conditions: C57bl/6j, mouse, in vivo; Table 4; read-out: Hypolocomotion ED50 ((95% CL)
[5] = Reduction of body temperature (hypothermia); conditions: C57bl/6j, mouse, in vivo, Body Temp. ED50 ((95% CL) mg/kg), Table 4; hypothermia

Compound: Cc1c(C(=O)NN2CCCCC2)nn(-c2ccc(Cl)cc2Cl)c1-c1ccc(Cl)cc1 [rimonabant]
- Effect on THC dose effect in drug discrimination (in words) [1]: antagonizes the dose effect of THC

Compound: CCCCCc1cc(O)c2c(c1)OC(C)(C)c1ccc(C)cc1-2 [CBN, cannabinol]
- Binding affinity for cannabinoid receptors (cannabinoid receptors): significantly higher

Compound: 10-methyl-CBN [ax-CBN]
- Hypolocomotion ED50 ((95% CL) (mice [2]; Table 4): 290.20 mg/kg
- Locomotion (in words) (mice [2]): decreased locomotion
- Acute thermal antinociception (in words) (mice [3]): dose-relatedly produced thermal antinociception
- Body Temp. ED50 ((95% CL) (C57bl/6j mice; Table 4, hypothermia): 308.98 mg/kg
- Effect on body temperature (in words) (C57bl/6j mice): hypothermia

Compound: CCCCCc1cc(O)c2c(c1)OC(C)(C)[C@@H]1CCC(C)=C[C@@H]21 [THC, (−)-trans-Δ^9-tetrahydrocannabinol]
- ED50 [4]: 25.5 mg/kg
- Locomotion (in words) (mice [2]): decreased locomotion
- Acute thermal antinociception (in words) (mice [3]): dose-relatedly produced thermal antinociception
- Ki (cannabinoid receptors; read-out: Binding affinity for cannabinoid receptors): 20 to 40 nM
- ED50 [5]: 17.5 mg/kg
- Effect on body temperature (in words) (C57bl/6j mice): robust depression of body temperature; also recorded: hypothermia
